Activity and IC50 data for two compounds are collected here from ChEMBL document CHEMBL5331115, “Design, Synthesis, and Pharmacological Characterization of a Potent Soluble Epoxide Hydrolase Inhibitor for the Treatment of Acute Pancreatitis” (J Med Chem, 2023).

One may read the IC50 as the midpoint of a concentration-inhibition curve.

Experiment [1] deals with Mus musculus. As to the kind of experiment: Antiinflammatory activity in cerulein-induced CD-1 mouse assessed as reduction in lung inflammation at 10 mg/kg, ip administered on 0.5 and 2.5 hrs post first cerulein administration measured after 6 hrs by Hematoxylin and eosin staining based analysis. It is filed as functional, organism-based.
Experiment [2] relates to Mus musculus. As to the kind of experiment: Antiinflammatory activity in cerulein-induced CD-1 mouse assessed as reduction in serum AST at 10 mg/kg, ip administered on 0.5 and 2.5 hrs post first cerulein administration measured after 6 hrs by Hematoxylin and eosin staining based analysis. The class given is functional, organism-based.
Experiment [3] relates to Mus musculus. As to the kind of experiment: Antiinflammatory activity in cerulein-induced CD-1 mouse assessed as reduction of edema at 10 mg/kg, ip administered on 0.5 and 2.5 hrs post first cerulein administration measured after 6 hrs by Hematoxylin and eosin staining based analysis. It is filed as functional, organism-based.
Experiment [4] relates to Mus musculus. As to the kind of experiment: Antiinflammatory activity in cerulein-induced CD-1 mouse assessed as reduction in lung neutrophilia at 10 mg/kg, ip administered on 0.5 and 2.5 hrs post first cerulein administration measured after 6 hrs by Hematoxylin and eosin staining based analysis. It is filed as functional, organism-based.
Experiment [5] deals with Mus musculus. The experiment can be described thus: Antiinflammatory activity in cerulein-induced CD-1 mouse assessed as reduction of cell infiltration at 10 mg/kg, ip administered on 0.5 and 2.5 hrs post first cerulein administration measured after 6 hrs by Hematoxylin and eosin staining based analysis. It is filed as functional, organism-based.
For experiment [6], the system named is Mus musculus. The experiment can be described thus: Antiinflammatory activity in cerulein-induced CD-1 mouse assessed as reduction of neutrophil numbers at 10 mg/kg, ip administered on 0.5 and 2.5 hrs post first cerulein administration measured after 6 hrs by Hematoxylin and eosin staining based analysis. It is filed as functional, organism-based.
In experiment [7] the test system is Mus musculus. As to the kind of experiment: Antiinflammatory activity in cerulein-induced CD-1 mouse assessed as reduction in serum ALT at 10 mg/kg, ip administered on 0.5 and 2.5 hrs post first cerulein administration measured after 6 hrs by Hematoxylin and eosin staining based analysis. The class given is functional, organism-based.
Experiment [8] addresses T1, Prostaglandin G/H synthase 2 (Mus musculus, UniProt Q05769).
T1 sequence (Q05769 whole entry): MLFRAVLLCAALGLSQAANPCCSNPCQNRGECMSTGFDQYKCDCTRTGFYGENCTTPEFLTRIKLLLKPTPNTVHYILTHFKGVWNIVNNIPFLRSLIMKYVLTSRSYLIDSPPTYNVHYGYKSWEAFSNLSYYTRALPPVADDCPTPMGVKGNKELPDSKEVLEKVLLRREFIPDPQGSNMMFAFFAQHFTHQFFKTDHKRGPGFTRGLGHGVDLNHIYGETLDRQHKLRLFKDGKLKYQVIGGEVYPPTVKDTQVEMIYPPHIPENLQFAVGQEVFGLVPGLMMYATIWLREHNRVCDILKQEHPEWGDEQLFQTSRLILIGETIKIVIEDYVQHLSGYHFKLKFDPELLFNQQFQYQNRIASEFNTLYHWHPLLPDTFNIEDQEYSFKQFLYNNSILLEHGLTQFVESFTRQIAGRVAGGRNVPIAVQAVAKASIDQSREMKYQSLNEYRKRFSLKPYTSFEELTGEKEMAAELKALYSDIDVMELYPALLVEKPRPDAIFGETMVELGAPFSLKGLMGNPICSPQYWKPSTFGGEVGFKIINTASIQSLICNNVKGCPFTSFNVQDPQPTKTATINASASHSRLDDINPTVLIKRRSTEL
The experiment can be described thus: Inhibition of COX-2 in LPS-stimulated mouse J774 cells assessed as inhibition of PGE2 production pretreated for 2 hrs followed by stimulation with LPS measured after 24 hrs by ELISA analysis. It is filed as cell-based.

Experiment [9] deals with Mus musculus. The experiment can be described thus: Antiinflammatory activity in cerulein-induced CD-1 mouse assessed as reduction in pancreatic injury at 10 mg/kg, ip administered on 0.5 and 2.5 hrs post first cerulein administration measured after 6 hrs by Hematoxylin and eosin staining based analysis. It is filed as functional, organism-based.

Calls of active or inactive are those of the source. No cut-off for these calls is given here. Some results are limits rather than exact numbers.

For `CC(C)c1ccc(Cn2ccc3cc(NC(=O)NCC45C[C@H]6C[C@@H](C4)C[C@@H](C5)C6)ccc32)cc1`, the result in experiment [1], in experiment [2], in [3], in experiment [4], in experiment [5] and in [6] was Active. Also, the result in experiment [7] was Active. Besides, the 50% inhibitory concentration (IC50) in experiment [8] was above 10 µM.

On to `O=C(O)CCCCCCCCCCCNC(=O)NC12CC3CC(CC(C3)C1)C2`, for which, in experiment [9], the outcome was Active.
